{"source": "patent US12491198B2", "about": "“Doxycycline injection for sclerotherapy of lower eyelid festoons and malar edema” (LKF21, LLC, priority 2020, dated 2025)", "key": {"[1]": {"system": "edema of festoons and malar mounds", "assay": "Studies of doxycycline as sclerosing agent at lower concentrations and compared with tetracycline", "type": "in vivo", "conditions": "versus tetracycline"}, "[2]": {"system": "lower eyelid festoons and malar edema", "type": "in vivo, human", "method": "An initial study of 15 consecutive patients with malar edema and/or festoons were injected with doxycycline hyclate at a concentration of 10 mg/mL. Pre- and post-injection photographs were reviewed and graded on a scale of 0 to 3 (0 no festoon, 1 small festoon, 2 medium festoon, 3 large festoon) by two blinded physician observers. […] Student t-test was used for statistical analysis.\nInstitutional Review Board (IRB) approval was obtained. A retrospective chart review was performed on 15 consecutive patients injected with doxycycline hyclate at a concentration of 10 mg/mL directly into their malar edema and festoons. The primary outcome measure was improvement in the appearance of lower eyelid festoons or malar edema. Pre- and post-injection photographs were reviewed and graded on a scale of 0 to 3 (0 no festoon, 1 small festoon, 2 medium festoon, 3 large festoon) by two blinded physician observers. All pre- and post-treatment photographs were taken in a standardized position without the use of a flash device. Written consent was obtained for the use of photographs and is on file with the authors. Additional data collected included patient age, volume of injection, location of injection, number of injections, and subjective complaints. […] Student t-test was used for statistical analysis.\nPatients were offered injections in clinic or in the operating room with intravenous sedation, with or without concurrent eyelid surgery. For injections performed in the operating room, doxycycline hyclate was ordered from the hospital pharmacy at a concentration of 10 mg/mL. For injections performed in the office, doxycycline hyclate 100 mg sterile powder, lyophilized (Fresenius Kabi, Lake Zurich, Illinois, USA) was diluted to a concentration of 10 mg/mL with sterile 0.9% bacteriostatic sodium chloride solution. The solution was refrigerated at […], used within 48 hours of reconstitution, and protected from direct sunlight. Injections were performed using 1.0 mL syringes on a 30-gauge needle, directly into the festoon in multiple deep and intermediate planes beneath skin and muscle. Analysis of protected health information was compliant with the Health Insurance Portability and Accountability Act (HIPAA) and adherent to the Declaration of Helsinki."}}}
{"molecule": "C[C@H]1c2cccc(O)c2C(=O)C2=C(O)[C@]3(O)C(=O)C(C(N)=O)=C(O)[C@@H](N(C)C)[C@@H]3[C@@H](O)[C@@H]21", "note": "[doxycycline hyclate]", "values": [{"measurement": "risk of necrotizing dermalysis compared with tetracycline", "setting": "[1]", "result": "significantly lower risk"}, {"measurement": "bruising, average duration", "setting": "[2]; human, in vivo", "result": 10, "unit": "days"}, {"measurement": "patients reporting burning pain during the injection", "setting": "[2]; human, in vivo", "result": 100, "unit": "%"}, {"measurement": "skin redness, average duration of symptoms", "setting": "[2]; human, in vivo", "result": 2, "unit": "days"}, {"measurement": "average (standard deviation) festoon grade after injection", "setting": "[2]; post-injection, 10 mg/mL intralesional, scale 0 to 3, 20 treatment sides of 11 patients, mean follow up 22.5 weeks, p-value<0.001 vs initial", "result": "0.9 (0.82)"}, {"measurement": "average (standard deviation) initial festoon grade", "setting": "[2]; pre-injection, scale 0 to 3 (0 no festoon, 3 large festoon), 20 treatment sides of 11 patients, two blinded physician observers", "result": "2.5 (0.58)"}]}
